# Target: T1, Human TREM2 (Homo sapiens, UniProt Q9NZC2)
# T1 construct: expressed in transfected cells
# Assay: Human TREM2 cellular phospho-Syk AlphaLISA assay in HEK293/DAP12+TREM2 stable cell line
# Assay type: cell-based
# Conditions: HEK293/DAP12+TREM2 cells; for Emax: maximal response relative to the maximal response of the reference agonist, phospho-Syk AlphaLISA; for EC50: phospho-Syk (Tyr525/526) AlphaLISA signal, 30 min incubation
# Text: Human TREM2, in vitro Measurement of Triggering Receptor Expressed on Myeloid Cells 2 activity using cellular phosphorylation of Spleen Tyrosine Kinase (“Syk”) Assay
# HEK-293 cells were co-transfected with separate plasmids encoding TREM2 and DAP12 to generate a stable cell line. After antibiotic selection, functional clone pool analysis and two successive limiting dilutions, the final clone “HEK293/DAP12+TREM2” underwent a qPCR analysis and a pharmacological validation.
# TREM2 signaling through DAP12 was monitored in the HEK293/DAP12+TREM2 stable cell line by measuring the phosphorylation levels of the Syk kinase using the commercially available AlphaLISA SureFire Ultra p-SYK (Tyr525/526) Assay Kit (PerkinElmer #ALSU-PSYK), based on the Perkin Elmer AlphaScreen/AlphaLISA technology.
# Compounds are transferred to the test plate and tested in full dose response, 8 concentrations in quadruplicate data points. Compound serial dilutions were performed at Cybi-Felix instrument in 100% DMSO and the dose response curves were assembled in automated fashion in 384MPT at Hamilton STARlet instrument. All the stock solutions were prepared at 20 mM in 100% DMSO. For compounds testing, the starting concentration was 100 μM, dilution steps 1:6. A different concentration's range was adapted for compound's activity based on the preliminary results. Finally, a 384MPT reformatted for all compounds at 8 concentrations, quadruplicates, was used as “mother to child” process with a CyBi@-Well dispenser in which 1 μL of each compound was moved into a destination plate pre-filled with […] of EMEM cell culture medium (BIOWHITTAKER_cat.BE12-125F), thus obtaining 3× concentrated compounds working solution. In columns 1-2 and 23-24 the control wells were added. In particular, dose response curves of a reference control agonist were included in column 1 and 24 as reference control agonist (Reference control agonists used include Human TREM2 polyclonal Antibody AF1828: R&D Systems; Human TREM2 monoclonal Antibody MAB1828: R&D Systems). The dose response curves were tested starting at 30 μM, dilution step 1:6. Both “source” compound plate and “destination” compound plate were barcoded and a relationship between the two plates was thus generated.
# HEK293/DAP12+TREM2 cells were cultured in EMEM medium supplemented with IX Penicillin/Streptomycin (BIOWHITTAKER_cat.DE17-602E), ULTRAGLUTAMINE I 200 mM, 10% Fetal Bovine Serum plus antibiotics referred to as “HEK293 Culture Medium”. The day before the experiment, cells were detached by gentle wash with DPBS, followed by 5 min incubation at 37° C. with Trypsin solution. Cells were then diluted in HEK293 Culture Medium without antibiotics, counted and seeded into 384-well poly-D-Lysine coated microplates black/clear bottom (GREINER 781946) at a density of 10,000 cells/well in 25 μL/well by the use of a MATRIX WellMate dispenser. Plates were placed into a humidified cell culture incubator at 37° C. with 5% CO2 until the experimental day. 20-24 hours after seeding mature medium was removed and replaced with 10 μL/well of EMEM cell medium supplemented with 0.1% Pluronic F-68 non-ionic surfactant (Thermofisher, 24040032), referred to as “Assay Buffer”, using the CyBi@-Well instrument. Then 5 μL/well of Assay Buffer containing 3× concentrated test compounds or the reference control agonist (in 0.5% final DMSO concentration) were added to the cells with the CyBi@-Well instrument. Cell plates were incubated for 30 min into a humidified cell culture incubator at 37° C. with 5% CO2, then the medium was removed by manually discard. 20 μL/well of lysis buffer were dispensed using the CyBi@-Well instrument and plates were incubated for 10 min at room temperature on a plate shaker (350 rpm). Then, 10 μL/well of lysate were transferred to the Alpha plates.
# The CyBi@-Well instrument was used to dispense 5 μL/well of AlphaLISA Acceptor Bead Solution in IX Immunoassay buffer (Perkin Elmer AL000F). […]
# T1 sequence (Q9NZC2 19-230): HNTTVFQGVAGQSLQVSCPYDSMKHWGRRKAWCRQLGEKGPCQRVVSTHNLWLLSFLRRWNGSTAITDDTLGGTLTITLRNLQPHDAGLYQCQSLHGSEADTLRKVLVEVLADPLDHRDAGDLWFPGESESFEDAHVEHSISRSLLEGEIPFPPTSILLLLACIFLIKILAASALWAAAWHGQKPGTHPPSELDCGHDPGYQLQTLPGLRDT
# T1 sequence (O43914 22-113 partner): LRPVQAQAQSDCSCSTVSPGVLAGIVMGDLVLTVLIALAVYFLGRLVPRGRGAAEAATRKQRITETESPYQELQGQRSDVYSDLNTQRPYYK
Structure (SMILES),Emax [%],EC50 [nM]
"Cn1c(C(F)(F)F)nc2c(-c3ccc(C#N)cc3F)nc(N3CC(Oc4ccnc(C#N)c4)C3)nc2c1=O [Example 20, 4-((1-(4-(4-cyano-2-fluorophenyl)-7-methyl-8-oxo-6-(trifluoromethyl)-7,8-dihydropyrimido[5,4-d]pyrimidin-2-yl)azetidin-3-yl)oxy)picolinonitrile]",75 to 110,10 to 100
"COc1cc(OC2CN(c3nc(-c4ccc(C#N)cc4F)c4nc(C(F)(F)F)n(C)c(=O)c4n3)C2)ccn1 [Example 21, 3-fluoro-4-(2-(3-((2-methoxypyridin-4-yl)oxy)azetidin-1-yl)-7-methyl-8-oxo-6-(trifluoromethyl)-7,8-dihydropyrimido[5,4-d]pyrimidin-4-yl)benzonitrile]",75 to 110,< 10
"Cn1c(C(F)(F)F)nc2c(-c3ccc(C#N)cc3F)nc(N3CC(Oc4ccnc(C5CC5)c4)C3)nc2c1=O [Example 22, 4-(2-(3-((2-cyclopropylpyridin-4-yl)oxy)azetidin-1-yl)-7-methyl-8-oxo-6-(trifluoromethyl)-7,8-dihydropyrimido[5,4-d]pyrimidin-4-yl)-3-fluorobenzonitrile]",75 to 110,10 to 100
"Cn1c(C(F)(F)F)nc2c(-c3ccc(C#N)cc3F)nc(N3CC(Oc4ccnc(C(F)F)c4)C3)nc2c1=O [Example 23, 4-(2-(3-((2-(difluoromethyl)pyridin-4-yl)oxy)azetidin-1-yl)-7-methyl-8-oxo-6-(trifluoromethyl)-7,8-dihydropyrimido[5,4-d]pyrimidin-4-yl)-3-fluorobenzonitrile]",75 to 110,10 to 100
"Cn1c(C(F)(F)F)nc2c(-c3ccc(C#N)cc3F)nc(N3CC(Oc4ccnc(OC(F)F)c4)C3)nc2c1=O [Example 24, 4-(2-(3-((2-(difluoromethoxy)pyridin-4-yl)oxy)azetidin-1-yl)-7-methyl-8-oxo-6-(trifluoromethyl)-7,8-dihydropyrimido[5,4-d]pyrimidin-4-yl)-3-fluorobenzonitrile]",75 to 110,10 to 100
"Cn1c(C(F)(F)F)nc2c(-c3ccc(C#N)cc3F)nc(N3CC(Oc4ccnc(C(F)(F)F)c4)C3)nc2c1=O [Example 25, 3-fluoro-4-(7-methyl-8-oxo-6-(trifluoromethyl)-2-(3-((2-(trifluoromethyl)pyridin-4-yl)oxy)azetidin-1-yl)-7,8-dihydropyrimido[5,4-d]pyrimidin-4-yl)benzonitrile]",75 to 110,10 to 100
"Cn1c(C(F)(F)F)nc2c(-c3ccc(C#N)cc3F)nc(N3CC(Oc4cnnc(Cl)c4)C3)nc2c1=O [Example 26, 4-(2-(3-((6-chloropyridazin-4-yl)oxy)azetidin-1-yl)-7-methyl-8-oxo-6-(trifluoromethyl)-7,8-dihydropyrimido[5,4-d]pyrimidin-4-yl)-3-fluorobenzonitrile]",< 75,100 to 1000
"Cn1c(C(F)(F)F)nc2c(-c3ccc(C#N)cc3F)nc(N3CC(Oc4cncnc4)C3)nc2c1=O [Example 27, 3-fluoro-4-(7-methyl-8-oxo-2-(3-(pyrimidin-5-yloxy)azetidin-1-yl)-6-(trifluoromethyl)-7,8-dihydropyrimido[5,4-d]pyrimidin-4-yl)benzonitrile]",< 75,100 to 1000
"Cc1ncc(OC2CN(c3nc(-c4ccc(C#N)cc4F)c4nc(C(F)(F)F)n(C)c(=O)c4n3)C2)cn1 [Example 28, 3-fluoro-4-(7-methyl-2-(3-((2-methylpyrimidin-5-yl)oxy)azetidin-1-yl)-8-oxo-6-(trifluoromethyl)-7,8-dihydropyrimido[5,4-d]pyrimidin-4-yl)benzonitrile]",< 75,100 to 1000
"Cc1ncncc1OC1CN(c2nc(-c3ccc(C#N)cc3F)c3nc(C(F)(F)F)n(C)c(=O)c3n2)C1 [Example 29, 3-fluoro-4-(7-methyl-2-(3-((4-methylpyrimidin-5-yl)oxy)azetidin-1-yl)-8-oxo-6-(trifluoromethyl)-7,8-dihydropyrimido[5,4-d]pyrimidin-4-yl)benzonitrile]",< 75,100 to 1000

# The remaining lines, values ahead:
Emax [%],EC50 [nM],Structure (SMILES)
75 to 110,10 to 100,"Cc1cc(OC2CN(c3nc(-c4ccc(F)cc4F)c4nc(C(F)(F)F)n(C)c(=O)c4n3)C2)ccn1 [Example 30, 8-(2,4-difluorophenyl)-3-methyl-6-(3-((2-methylpyridin-4-yl)oxy)azetidin-1-yl)-2-(trifluoromethyl)pyrimido[5,4-d]pyrimidin-4(3H)-one]"
75 to 110,100 to 1000,"Cn1c(C(F)(F)F)nc2c(-c3ccc(F)cc3F)nc(N3CC(Cc4cnn(C5CC5)c4)C3)nc2c1=O [Example 31, 6-(3-((1-cyclopropyl-1H-pyrazol-4-yl)methyl)azetidin-1-yl)-8-(2,4-difluorophenyl)-3-methyl-2-(trifluoromethyl)pyrimido[5,4-d]pyrimidin-4(3H)-one]"
< 75,10 to 100,"Cn1c(C(F)(F)F)nc2c(-c3ccc(F)cc3F)nc(N3CC(Oc4cnn(C5CC5)c4)C3)nc2c1=O [Example 32, 6-(3-((1-cyclopropyl-1H-pyrazol-4-yl)oxy)azetidin-1-yl)-8-(2,4-difluorophenyl)-3-methyl-2-(trifluoromethyl)pyrimido[5,4-d]pyrimidin-4(3H)-one]"
75 to 110,100 to 1000,"CN(c1cnn(C2CC2)c1)C1CN(c2nc(-c3ccc(F)cc3F)c3nc(C(F)(F)F)n(C)c(=O)c3n2)C1 [Example 33, 6-(3-((1-cyclopropyl-1H-pyrazol-4-yl)(methyl)amino)azetidin-1-yl)-8-(2,4-difluorophenyl)-3-methyl-2-(trifluoromethyl)pyrimido[5,4-d]pyrimidin-4(3H)-one]"
< 75,10 to 100,"Cc1cc(CC2CN(c3nc(-c4ccc(F)cc4F)c4nc(C(F)(F)F)n(C)c(=O)c4n3)C2)ccn1 [Example 34, 8-(2,4-difluorophenyl)-3-methyl-6-(3-((2-methylpyridin-4-yl)methyl)azetidin-1-yl)-2-(trifluoromethyl)pyrimido[5,4-d]pyrimidin-4(3H)-one]"
75 to 110,10 to 100,"Cn1c(C(F)(F)F)nc2c(-c3ccc(C#N)cc3)nc(N3CC(Oc4cnn(C5CC5)c4)C3)nc2c1=O [Example 35, 4-(2-(3-((1-cyclopropyl-1H-pyrazol-4-yl)oxy)azetidin-1-yl)-7-methyl-8-oxo-6-(trifluoromethyl)-7,8-dihydropyrimido[5,4-d]pyrimidin-4-yl)benzonitrile]"
< 75,100 to 1000,"COc1ccc(-c2nc(N3CC(Oc4cnn(C5CC5)c4)C3)nc3c(=O)n(C)c(C(F)(F)F)nc23)c(F)c1 [Example 36, 6-(3-((1-cyclopropyl-1H-pyrazol-4-yl)oxy)azetidin-1-yl)-8-(2-fluoro-4-methoxyphenyl)-3-methyl-2-(trifluoromethyl)pyrimido[5,4-d]pyrimidin-4(3H)-one]"
75 to 110,100 to 1000,"COc1ccc(-c2nc(N3CC(Oc4cnn(C5CC5)c4)C3)nc3c(=O)n(C)c(C(F)(F)F)nc23)cn1 [Example 37, 6-(3-((1-cyclopropyl-1H-pyrazol-4-yl)oxy)azetidin-1-yl)-8-(6-methoxypyridin-3-yl)-3-methyl-2-(trifluoromethyl)pyrimido[5,4-d]pyrimidin-4(3H)-one]"

# Reference: patent US12459952B2, “TREM2 modulators” (Muna Therapeutics ApS, priority 2024, dated 2025)
